From ChEMBL document CHEMBL5512660, “Synthesis of LAVR-289, a new [(Z)-3-(acetoxymethyl)-4-(2,4-diaminopyrimidin-6-yl)oxy-but-2-enyl]phosphonic acid prodrug with pronounced antiviral activity against DNA viruses” (Eur J Med Chem, 2024)

Columns and labels:
[1] = system: Human alphaherpesvirus 2; assay: Antiviral activity against human herpes virus type 2 strain 07/1 infected in human HEL cells assessed as reduction in plaque formation measured after 3 days; format: functional, organism-based; settings: Human alphaherpesvirus 2, 07/1, HEL, 72 h
[2] = system: Cytomegalovirus; assay: Antiviral activity against human cytomegalovirus strain Davis infected in human HEL cells assessed as reduction in virus-induced cytopathic effect measured after 3 days; format: functional, organism-based; settings: Human betaherpesvirus 5, Davis, 72 h
[3] = system: Vaccinia virus; assay: Antiviral activity against Vaccinia virus […] infected in human HEL cells assessed as reduction in plaque formation measured after 3 days; format: functional, organism-based; settings: Orthopoxvirus vaccinia, 72 h
[4] = system: Human alphaherpesvirus 1; assay: Antiviral activity against thymidine-kinase expressing human herpes virus type 1 KOS infected in human HEL cells assessed as reduction in plaque formation measured after 3 days; format: functional, organism-based; settings: Human alphaherpesvirus 1, KOS, 72 h
[5] = Cytostatic activity against human HEL cells assessed as reduction in cell growth measured after 24 hrs; format: toxicity, cell-based
[6] = system: Cytomegalovirus; assay: Antiviral activity against human cytomegalovirus strain AD-169 infected in human HEL cells assessed as reduction in virus-induced cytopathic effect measured after 3 days; format: functional, organism-based; settings: Human betaherpesvirus 5, AD-169, HEL, 72 h
[7] = system: Human alphaherpesvirus 3; assay: Antiviral activity against thymidine-kinase expressing Varicella zoster virus wild type strain YS infected in human HEL cells assessed as reduction in plaque formation measured after 3 days; format: functional, organism-based; settings: Human alphaherpesvirus 3, YS, 72 h
[8] = system: Human alphaherpesvirus 3; assay: Antiviral activity against thymidine-kinase expressing Varicella zoster virus wild type strain OKA infected in human HEL cells assessed as reduction in plaque formation measured after 3 days; format: functional, organism-based; settings: Human alphaherpesvirus 3, OKA, 72 h
[9] = system: Human alphaherpesvirus 1; assay: Antiviral activity against thymidine-kinase deficient acyclovir-resistant human herpes virus type 1 infected in human HEL cells assessed as reduction in plaque formation measured after 3 days; format: functional, organism-based; settings: Human alphaherpesvirus 1, HEL, 72 h
[10] = system: Human alphaherpesvirus 3; assay: Antiviral activity against thymidine-kinase deficient acyclovir-resistant Varicella zoster virus strain YS/R infected in human HEL cells assessed as reduction in plaque formation measured after 3 days; format: functional, organism-based; settings: Human alphaherpesvirus 3, YS/R, 72 h
[11] = Cytotoxicity against human HEL cells assessed as microscopically detectable alterations in cell morphology measured after 24 hrs; format: toxicity, cell-based; settings: read-out: MCC50
[12] = system: Human alphaherpesvirus 3; assay: Antiviral activity against thymidine-kinase deficient acyclovir-resistant Varicella zoster virus strain 07/1 infected in human HEL cells assessed as reduction in plaque formation measured after 3 days; format: functional, organism-based; settings: Human alphaherpesvirus 3, 07/1, HEL, 72 h
[13] = Selectivity index, ratio of CC50 for human HEL cells to EC50 for thymidine-kinase deficient acyclovir-resistant human herpes virus type 1; format: toxicity; settings: read-out: Selectivity Index
[14] = Selectivity index, ratio of CC50 for human HEL cells to EC50 for Vaccinia virus […]; format: toxicity; settings: read-out: Selectivity Index
[15] = Selectivity index, ratio of CC50 for human HEL cells to EC50 for thymidine-kinase deficient acyclovir-resistant Varicella zoster virus; format: toxicity; settings: read-out: Selectivity Index

Structure (SMILES) | EC50 [1] [nM] | EC50 [2] [nM] | EC50 [3] [nM] | EC50 [4] [nM] | CC50 at 24 h [5] [nM] | EC50 [6] [nM] | EC50 [7] [nM] | EC50 [8] [nM] | EC50 [9] [nM] | EC50 [10] [nM] | MCC at 24 h [11] [µM] | EC50 [12] [nM] | selectivity ratio [13] | selectivity ratio [14] | selectivity ratio [15]
CC(C)(C)C(=O)OCOP(=O)(C/C=C/COc1cc(N)nc(N)n1)OCOC(=O)C(C)(C)C | 13400 | 44700 | 32500 | 13400 | 5100 | 44700 | 2400 | 800 | 13400 | 1700 | > 100 | 1400 |  |  | 
CC(=O)OCC(=CCP(=O)(OCOC(=O)C(C)(C)C)OCOC(=O)C(C)(C)C)COc1cc(N)nc(N)n1 | 1100 | 4060 | 2900 | 600 | 2030 | 8560 | 360 | 140 | 600 | 180 | 100 | 120 |  |  | 
CC(C)OC(=O)OCOP(=O)(C/C=C/COc1cc(N)nc(N)n1)OCOC(=O)OC(C)C | 1800 | 36600 |  | 3750 | > 100000 | 44700 |  | 860 | 5750 |  | > 100 | 1250 |  |  | 
CCCCCCCCCCCCCCCCOCCCOP(=O)(C/C=C(\COC(C)=O)COc1cc(N)nc(N)n1)OCOC(=O)OC(C)C (configuration not stated) | 15 |  | 50 | 430 | 2320 | 21 |  | 4 | 9 |  | 100 | 18 | 273 | 46 | 129
CCCCCCCCCCCCCCCCOCCCOP(=O)(C/C=C/COc1cc(N)nc(N)n1)OCOC(=O)OC(C)C (configuration not stated) | 39000 | 7260 |  | 39000 | 14500 | 7080 |  | 180 | 42000 |  | 100 | 240 |  |  | 
CC(=O)OC/C(=C\CP(=O)(OCOC(=O)OC(C)C)OCOC(=O)OC(C)C)COc1cc(N)nc(N)n1 | 350 |  | 4100 | 600 | 15400 |  |  | 90 | 400 |  | > 100 | 220 |  |  | 
Nc1nc2c(ncn2COCCO)c(=O)[nH]1 [ACYCLOVIR] |  |  | > 250000 |  | 470000 |  |  |  |  | 66000 | > 300 |  |  |  | 
O=c1[nH]c(=O)n([C@H]2C[C@H](O)[C@@H](CO)O2)cc1/C=C/Br [BRIVUDINE] |  |  | 5800 |  | > 150000 |  |  | 9 |  | 85000 | > 150 |  |  |  | 
Nc1ccn(C[C@@H](CO)OCP(=O)(O)O)c(=O)n1 [CIDOFOVIR ANHYDROUS] |  |  | 29000 |  | 64000 | 730 |  |  | 3800 |  | > 350 |  |  | 2 | 
Nc1nc2c(ncn2COC(CO)CO)c(=O)[nH]1 [GANCICLOVIR] | 60 |  | > 100000 |  | 130000 | 7500 |  |  |  |  | > 350 |  |  |  | 
